Source: patent US6440999B1, “Intimal thickening inhibitory agent” (Chugai Seiyaku Kabushiki Kaisha, priority 1995, dated 2002)

Experiments:
[1] = test system: A7r5 cells derived from the aorta of a rat; assay: Inhibition of serum-stimulated proliferation of vascular smooth muscle cells, acid phosphatase activity; type: cell-based; settings: 48 hours after 2% FBS stimulation, n = 3, mean ± SD; for Acid Phosphatase Activity Absorbance (OD405): control 0.867 ± 0.089; for activity at 10 µM / activity at 100 µM / activity at 30 µM: Rattus norvegicus, A7R5, control 100 ± 10
Procedure: In order to assess the inhibitory effect of the compounds of the present invention on serum-stimulated proliferation of vascular smooth muscle cells in vitro, the compounds of Examples 1, 4, 20, 22, 27, 31, 36, 50, 52, and 58 were tested using A7r5 cells derived from the aorta of a rat (ATCC-CRL-1444).
Using DMEM medium containing 10% FBS, the cells were placed on 96-well microtiter plates with 5×10^3 cells/0.2 ml/ well and then incubated. The medium was exchanged for 2% FBS-containing DMEM medium on the third day and then for 0.2% FBS-containing DMEM medium on the fourth day from the start of the incubation. After 24-hour incubation in the 0.2% FBS-containing DMEM medium, the test compound was added. Each of the test compounds were added to the wells in the form of a solution or suspension in ethanol in an amount of 1 μl/well to final compound concentrations indicated in Table 3 below and the resultant ethanol concentration of 0.5% in each well. After additional 24-hour incubation, the medium was removed, and 0.2 ml of DMEM medium and the test compound were added thereto again, and the cells were stimulated by serum (2% FBS). Forty-eight hours after the stimulation, the acid phosphatase activity in the wells was measured by means of a kit (Abacus Cell Proliferation Kit, available from Clontech Lab. Inc. CA, U.S.A.) and evaluated as an indication of cell proliferation.

[2] = test system: rabbit balloon injury models; assay: In vivo effect in intimal thickening model (2), rabbit balloon injury; settings: cholesterol-fed rabbits, 15-week-old, 200 mg/kg oral once a day, four weeks after balloon treatment, mean ± SD
Procedure: In order to assess the inhibitory effect of the compound of the present invention on intimal thickening in vivo, the compound of Example 36 was tested using rabbit balloon injury models that were different from those used in Test Example 4 in week-age. Further, the effect was compared with that of Probucol which was reported to have an inhibitory effect on intimal thickening in balloon injury models (see Proc. Natl. Acad. Sci., U.S.A., 89, pp 11312-11316 (1992)).
Cholesterol-fed rabbits in groups of seven (JW: CSK male, 15-week-old) were used to prepare rabbit balloon injury models. Briefly, rabbits were fed with a high cholesterol diet (cholesterol content: 1%) for 2 weeks before balloon treatment. The animals were balloon-treated with a balloon catheter (4 French, available from Baxter) under anesthesia to peel the aortic intima 5 times. The animals were orally administered with the compound which was suspended in a 1% CMC solution (200 mg/kg). On the other hand, control animals were orally administered with a 1% CMC solution without the compound. The administrations were performed once a day from 1 week before the balloon treatment until the day before the dissection for evaluation. In order to evaluate the degree of balloon injury, a balloon-nontreated group (3 animals) was prepared.
After four weeks from the balloon treatment, specimens were taken from the aorta, stained with Elastica van Geison, and analyzed under an optical microscope. The image was processed to measure the thickness and area of the thickened intima. Averages of the thickness and area were obtained for each individual animal. The animals which died after the operation and those having a serum cholesterol level of 3500 mg/dl or higher were excluded from the measurement. The number of animals used for the evaluation was 4 or 5 per group.

[3] = test system: A7r5 cells derived from the aorta of a rat; assay: Inhibition of serum- or PDGF-stimulated proliferation of vascular smooth muscle cells, [3H]-thymidine uptake; type: cell-based; settings: uptake in 5 hours, n = 3, mean ± SD; for Count by Liquid Scintillation Counter, FBS Stimulation ([3H]-thymidine uptake): 2% FBS, control 42789 ± 1063; for Count by Liquid Scintillation Counter, PDGF Stimulation ([3H]-thymidine uptake): PDGF-BB 4 ng/ml, control 24517 ± 2370
Procedure: In order to assess the inhibitory effect of a compound of the present invention on serum- or PDGF-stimulated proliferation of vascular smooth muscle cells in vitro, the compound obtained in Example 36 was tested using A7r5 cells derived from the aorta of a rat (ATCC-CRL-1444). Further, the effect was compared with that of α-tocopherol which was reported to have an inhibitory effect on proliferation of vascular smooth muscle cells (see J. Biol. Chem., 266, pp. 6188-6194 (1991)).
Using DMEM medium containing 10% FBS, the cells were placed on 96-well microtiter plates with 5×10^3 cells/0.2 ml/well and then incubated. The medium was exchanged for 2% FBS-containing DMEM medium on the third day and then for 0.2% FBS-containing DMEM medium on the fourth day from the start of the incubation. After 48-hour incubation in the 0.2% FBS-containing DMEM medium, the medium was removed, 0.2 ml of DMEM medium and the test compound were added, and the cells were stimulated with serum (2% FBS) or PDGF (PDGF-BB: human origin, available from Becton Dickinson Labware) (4 ng/ml) to proliferate. The test compound was added to the wells in the form of a solution or suspension in ethanol in amount of 1 μl well to final compound concentrations indicated in Table 2 below and the resultant ethanol concentration of 0.5% in each well. Eight hours after the stimulation, hydroxyurea was added to a final concentration of 1.5 mM to synchronize the cell cycle strictly. After additional 14-hour incubation, the medium containing hydroxyurea was removed and the cells were washed, and DMEM medium, the test compound and the proliferation stimulator were added thereto again. Further, [^3H]-thymidine (1 μCi/well; […]; available from NEN Research) was added. The [^3H]-thymidine uptake in 5 hours was measured as an indication of cell proliferation.

Structure (SMILES) | Acid Phosphatase Activity Absorbance (OD405) ([1]; 10 μM) | activity at 10 µM ([1]; 10 μM) [%] | Acid Phosphatase Activity Absorbance (OD405) ([1]; 30 μM) | activity at 30 µM ([1]; 30 μM) [%] | further results
CC(C)(C)c1cc2c(c(C(C)(C)C)c1O)CCO2 [Example 1, 4,6-Di-t-butyl-5-hydroxy-2,3-dihydrobenzofuran] | 0.727 ± 0.032 | 84 ± 4 | – | – | Acid Phosphatase Activity Absorbance (OD405) ([1]; 100 μM): 0.288 ± 0.073; activity at 100 µM ([1]; 100 μM): 33 ± 8%
CC1(C)Cc2c(cc(C(C)(C)C)c(O)c2C(C)(C)C)O1 [Example 4, 4,6-Di-t-butyl-5-hydroxy-2,2-dimethyl-2,3-dihydrobenzofuran] | 0.606 ± 0.020 | 70 ± 2 | 0.062 ± 0.026 | 7 ± 3 | –
CC(C)(C)c1cc2c(c(C(C)(C)C)c1O)CC1(CCCCCC1)O2 [Example 20, 4,6-Di-t-butyl-5-hydroxy-2,3-dihydrobenzofuran-2-spiro-1′-cycloheptane] | 0.472 ± 0.031 | 54 ± 4 | 0.105 ± 0.027 | 12 ± 3 | –
CC(C)(C)c1cc2c(c(C(C)(C)C)c1O)CC1(CCOCC1)O2 [Example 22, 4,6-Di-t-butyl-5-hydroxy-2,3-dihydrobenzofuran-2-spiro-4′-tetrahydropyran] | 0.875 ± 0.013 | 101 ± 1 | – | – | Acid Phosphatase Activity Absorbance (OD405) ([1]; 100 μM): 0.777 ± 0.062; activity at 100 µM ([1]; 100 μM): 90 ± 7%
CC(C)(C)c1cc2occc2c(C(C)(C)C)c1O [Example 27, 4,6-Di-t-butyl-5-hydroxybenzofuran] | 0.553 ± 0.033 | 64 ± 4 | 0.225 ± 0.064 | 26 ± 7 | –
CCCOc1cc(C(C)(C)C)c(O)c(C(C)(C)C)c1C [Example 31, 2,6-Di-t-butyl-3-methyl-4-propyloxyphenol] | 0.756 ± 0.025 | 87 ± 3 | – | – | Acid Phosphatase Activity Absorbance (OD405) ([1]; 100 μM): 0.600 ± 0.102; activity at 100 µM ([1]; 100 μM): 69 ± 12%
CC1(CO)Cc2c(cc(C(C)(C)C)c(O)c2C(C)(C)C)O1 (stereo not shown) [Example 48, 4,6-Di-t-butyl-5-hydroxy-2-hydroxymethyl-2-methyl-2,3-dihydrobenzofuran] | – | – | – | – | melting point: 126 to 128 °C
CCCCCC1(CCCCC)Cc2c(cc(C(C)(C)C)c(O)c2C(C)(C)C)S1 [Example 50, 4,6-Di-t-butyl-5-hydroxy-2,2-di-n-pentyl-2,3-dihydrobenzothiophene] | 0.699 ± 0.131 | 81 ± 15 | 0.146 ± 0.026 | 17 ± 3 | –
CC1(C)Cc2c(cc(C(C)(C)C)c(O)c2C(C)(C)C)S1 [Example 52, 4,6-Di-t-butyl-5-hydroxy-2,2-dimethyl-2,3-dihydrobenzothiophene] | 0.690 ± 0.071 | 80 ± 8 | 0.043 ± 0.008 | 5 ± 1 | –
CC(C)(C)c1cc2c(c(C(C)(C)C)c1O)CC1(CCCCC1)S2 [Example 58, 4,6-Di-t-butyl-5-hydroxy-2,3-dihydrobenzothiophene-2-spiro-1′-cyclohexane] | 0.417 ± 0.125 | 48 ± 14 | 0.045 ± 0.006 | 5 ± 1 | –
CC(C)(Sc1cc(C(C)(C)C)c(O)c(C(C)(C)C)c1)Sc1cc(C(C)(C)C)c(O)c(C(C)(C)C)c1 [Probucol, reference compound] | – | – | – | – | Area of Intima ([2]; control 1.32 ± 0.22): 0.97 ± 0.28 mm²; Thickness of Intima ([2]; control 119 ± 19): 92 ± 17 μm
Cc1c(C)c2c(c(C)c1O)CC[C@@](C)(CCC[C@H](C)CCC[C@H](C)CCCC(C)C)O2 [α-Tocopherol, α-tocopherol, reference compound] | – | – | – | – | Count by Liquid Scintillation Counter, FBS Stimulation ([3H]-thymidine uptake) ([3]; 30 μM): 28058 ± 3912 CPM; Count by Liquid Scintillation Counter, PDGF Stimulation ([3H]-thymidine uptake) ([3]; 30 μM): 12493 ± 2978 CPM; Count by Liquid Scintillation Counter, FBS Stimulation ([3H]-thymidine uptake) ([3]; 100 μM): 25706 ± 4160 CPM; Count by Liquid Scintillation Counter, PDGF Stimulation ([3H]-thymidine uptake) ([3]; 100 μM): 12159 ± 2362 CPM
